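1) Cells in 96-well plates. 2) Compound, 48 h, 5 concentrations. 3) Linear interpolation between surrounding doses. 4) Unreached endpoint = highest concentration. The concentration for full growth arrest is given as TGI.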
Legend:
Test in all cases: NCI-60 cell line screen, 48 h
[1] = tested on: NCI-H460 lung
[2] = tested on: U251 CNS
[3] = tested on: HCC-2998 colon
[4] = tested on: SK-MEL-5 melanoma
[5] = tested on: MDA-N
[6] = tested on: TK-10 renal
[7] = tested on: PC-3 prostate
[8] = tested on: NCI-H522 lung
[9] = tested on: SK-MEL-28 melanoma
[10] = tested on: HOP-62 NSCLC
[11] = tested on: HCT-116 colon
[12] = tested on: HL-60(TB) leukemia

## COc1ccc(C2CC3(c4ccccc4)ON=C(c4ccccc4)N3c3ccccc3S2)cc1 (stereo not given)
[1]
  TGI: > 100 µM
[2]
  TGI: > 100 µM
[3]
  TGI: > 100 µM
[4]
  TGI: > 100 µM
[5]
  TGI: > 100 µM
[6]
  TGI: > 100 µM
[7]
  TGI: > 100 µM
[8]
  TGI: > 100 µM
[9]
  TGI: > 100 µM
[10]
  TGI: > 100 µM
[11]
  TGI: > 100 µM

## O=Cc1ccc(CCl)cc1
[1]
  TGI: 37.1 µM
[2]
  TGI: 35.4 µM
[12]
  TGI: 23.9 µM
[4]
  TGI: 30.2 µM
[6]
  TGI: 45.5 µM
[8]
  TGI: 35.9 µM
[9]
  TGI: 32.9 µM
[11]
  TGI: 29.1 µM

## O=C(NCCNCCCNC(=O)c1cc(-c2ccccc2)nc2ccccc12)c1cccc(OCc2ccccc2)c1OCc1ccccc1
[1]
  TGI: 3.8 µM
[12]
  TGI: 3.19 µM
[3]
  TGI: 2.59 µM
[4]
  TGI: 3.12 µM
[5]
  TGI: 3.05 µM
[6]
  TGI: 3.17 µM
[7]
  TGI: 3.04 µM
[8]
  TGI: 3.12 µM
[9]
  TGI: 3.25 µM
[10]
  TGI: 3.01 µM
[11]
  TGI: 3.13 µM

## CSc1ncc2c(n1)sc1c(=O)n(-c3ccccc3)cnc12
[1]
  TGI: > 100 µM
[2]
  TGI: > 100 µM
[3]
  TGI: > 100 µM
[4]
  TGI: > 100 µM
[5]
  TGI: > 100 µM
[6]
  TGI: > 100 µM
[7]
  TGI: > 100 µM
[8]
  TGI: > 100 µM
[9]
  TGI: > 100 µM
[10]
  TGI: > 100 µM
[11]
  TGI: > 100 µM

## CSc1nc2c(ncn2C2OCC(O)C(O)C2O)c(=O)n1C (stereo not given)
[1]
  TGI: > 100 µM
[2]
  TGI: > 100 µM
[12]
  TGI: > 100 µM
[3]
  TGI: > 100 µM
[4]
  TGI: > 100 µM
[8]
  TGI: > 100 µM
[9]
  TGI: > 100 µM
[10]
  TGI: > 100 µM
[11]
  TGI: > 100 µM

## O=C(O)CC(Sc1ccccc1)c1ccccc1 (stereo not given)
[2]
  TGI: > 100 µM
[12]
  TGI: > 100 µM
[4]
  TGI: > 100 µM
[5]
  TGI: > 100 µM
[6]
  TGI: > 100 µM
[7]
  TGI: > 100 µM
[8]
  TGI: > 100 µM
[9]
  TGI: > 100 µM
[10]
  TGI: > 100 µM
[11]
  TGI: > 100 µM

## CN1CCC2(CC1)C(=NC1CCCCC1)NC(=S)N2c1ccccc1
[1]
  TGI: > 100 µM
[2]
  TGI: > 100 µM
[12]
  TGI: > 100 µM
[3]
  TGI: > 100 µM
[4]
  TGI: > 100 µM
[6]
  TGI: > 100 µM
[9]
  TGI: > 100 µM
[10]
  TGI: > 100 µM
[11]
  TGI: > 100 µM

## CCOP(=O)(OCC)/C(C#N)=C/c1cnc[nH]1
[1]
  TGI: > 100 µM
[2]
  TGI: > 100 µM
[12]
  TGI: > 100 µM
[3]
  TGI: > 100 µM
[4]
  TGI: > 100 µM
[6]
  TGI: > 100 µM
[7]
  TGI: > 100 µM
[8]
  TGI: > 100 µM
[9]
  TGI: > 100 µM
[10]
  TGI: > 100 µM
[11]
  TGI: > 100 µM

## CSc1ccc(/C=C2\N=C(c3ccccc3)N(c3nc4cc(C)c(C)cc4s3)C2=O)cc1
[1]
  TGI: > 100 µM
[2]
  TGI: 36.5 µM
[12]
  TGI: 86.3 µM
[3]
  TGI: 82.4 µM
[4]
  TGI: 84.5 µM
[5]
  TGI: 33.3 µM
[6]
  TGI: > 100 µM
[7]
  TGI: 49.3 µM
[9]
  TGI: > 100 µM
[10]
  TGI: 59.4 µM
[11]
  TGI: 44.5 µM

## CC(=O)NC(Cc1ccsc1)C(=O)O (stereo not given)
[1]
  TGI: > 100 µM
[2]
  TGI: > 100 µM
[12]
  TGI: > 100 µM
[3]
  TGI: > 100 µM
[4]
  TGI: > 100 µM
[8]
  TGI: > 100 µM
[9]
  TGI: > 100 µM
[10]
  TGI: > 100 µM
[11]
  TGI: > 100 µM
